# Experimental data reported in patent US11708562B2, “Differentiation of human embryonic stem cells” (Janssen Biotech, Inc., priority 2006, dated 2023).
# Test system: H9P83 cells on MATRIGEL and H9P44 cells on MEFs
# Experiment: Microarray analysis of gene expression after definitive endoderm formation (Table IV)
# Format: cell-based, human
# Description: Controls for each group included cells plated on […]-coated dishes and cultured in MEF-conditioned medium or cells plated on MEFs and cultured in ES medium.
# Sample preparation, hybridization, and image analysis were performed according to the Affymetrix Human Genome U133 Plus 2.0 Array. Following normalization and a log transformation, data analysis was performed using OmniViz® software (MA) and […] (VizXLabs, WA). The variability within each treatment and among the different treatments was compared using the Pearson correlation coefficient. […] Significant differences in gene expression between the samples were evaluated using analysis of variance and an F-test with adjusted P-value (Benjamini and Hochberg correction) of ≤0.05. Only genes with a present call were included in the analysis.
# [1] = microarray, H9P44 on MEFs, DE stage, 5 days of treatment
# [2] = microarray, H9P83 on Matrigel, DE stage, 5 days of treatment
substance,measurement,setting,value
Activin A: a member of the TGFβ superfamily; growth factor (R&D Systems) used to differentiate human embryonic stem cells,SCG5 (NM_003020) gene expression,"H9P83 on Matrigel-DE stage, after 5 days of treatment, undifferentiated H9P83 on Matrigel 4.03",2.53
same,C20orf118 (BF437747) gene expression,"H9P83 on Matrigel-DE stage, after 5 days of treatment, undifferentiated H9P83 on Matrigel 4.26",1.99
same,C20orf118 (AV715309) gene expression,"H9P83 on Matrigel-DE stage, after 5 days of treatment, undifferentiated H9P83 on Matrigel 4.28",1.89
same,LECT1 (NM_007015) gene expression,"H9P83 on Matrigel-DE stage, after 5 days of treatment, undifferentiated H9P83 on Matrigel 4.83",2.27
same,SCNN1G (AI985987) gene expression,"H9P83 on Matrigel-DE stage, after 5 days of treatment, undifferentiated H9P83 on Matrigel −0.28",−0.99
same,PCDH8 (NM_002590) gene expression,"H9P83 on Matrigel-DE stage, after 5 days of treatment, undifferentiated H9P83 on Matrigel −0.80",−0.83
same,TMEM16A (NM_018043) gene expression,"H9P83 on Matrigel-DE stage, after 5 days of treatment, undifferentiated H9P83 on Matrigel −0.90",−1.93
same,ATP5S (BE968806) gene expression,"H9P83 on Matrigel-DE stage, after 5 days of treatment, undifferentiated H9P83 on Matrigel −1.15",−3.03
same,SDK2 (N23651) gene expression,"H9P83 on Matrigel-DE stage, after 5 days of treatment, undifferentiated H9P83 on Matrigel −1.16",−2.65
same,PAK7 (AB040812) gene expression,"H9P83 on Matrigel-DE stage, after 5 days of treatment, undifferentiated H9P83 on Matrigel −1.37",−3.89
same,IFIH1 (NM_022168) gene expression,"H9P83 on Matrigel-DE stage, after 5 days of treatment, undifferentiated H9P83 on Matrigel −2.03",−2.76
same,"gene expression ADAMTS5 (NM_007038), H9P44 on MEFs-DE stage",[1],1.11
same,"gene expression AF116676 (PRO1957 mRNA), H9P44 on MEFs-DE stage",[1],4.23
same,"gene expression AI016316 (ESTs), H9P44 on MEFs-DE stage",[1],0.25
same,"gene expression AI222435 (ESTs), H9P44 on MEFs-DE stage",[1],−0.33
same,"gene expression AK057525 (cDNA FLJ32963), H9P44 on MEFs-DE stage",[1],4.80
same,"gene expression BE327172 (v-jun avian sarcoma virus 17 oncogene homolog), H9P44 on MEFs-DE stage",[1],3.57
same,"gene expression C9orf19 (AA284532), H9P44 on MEFs-DE stage",[1],4.93
same,"gene expression CD99 (U82164), H9P44 on MEFs-DE stage",[1],6.36
same,"gene expression CDKN1A (NM_000389), H9P44 on MEFs-DE stage",[1],4.16
same,"gene expression CNN1 (NM_001299), H9P44 on MEFs-DE stage",[1],5.14
same,"gene expression COL22A1 (AW241910), H9P44 on MEFs-DE stage",[1],1.90
same,"gene expression CREB5 (AI819043), H9P44 on MEFs-DE stage",[1],1.80
same,"gene expression CXCL1 (NM_001511), H9P44 on MEFs-DE stage",[1],2.39
same,"gene expression DNAJB2 (NM_006736), H9P44 on MEFs-DE stage",[1],3.75
same,"gene expression DNAJC15 (NM_013238), H9P44 on MEFs-DE stage",[1],5.58
same,"gene expression EDG3 (AA534817), H9P44 on MEFs-DE stage",[1],4.58
same,"gene expression EMP3 (NM_001425), H9P44 on MEFs-DE stage",[1],3.13
same,"gene expression FLNC (NM_001458), H9P44 on MEFs-DE stage",[1],3.39
same,"gene expression FN1 (AK026737), H9P44 on MEFs-DE stage",[1],7.39
same,"gene expression FN1 (BC005858), H9P44 on MEFs-DE stage",[1],7.37
same,"gene expression GADD45A (NM_001924), H9P44 on MEFs-DE stage",[1],5.38
same,"gene expression GNA14 (NM_004297), H9P44 on MEFs-DE stage",[1],2.95
same,"gene expression HIST1H2BK (BC000893), H9P44 on MEFs-DE stage",[1],4.81
same,"gene expression IGSF4 (NM_014333), H9P44 on MEFs-DE stage",[1],3.79
same,"gene expression JUN (BG491844), H9P44 on MEFs-DE stage",[1],5.91
same,"gene expression KLF6 (AB017493), H9P44 on MEFs-DE stage",[1],4.87
same,"gene expression MFAP5 (U37283), H9P44 on MEFs-DE stage",[1],1.36
same,"gene expression MYL4 (M36172), H9P44 on MEFs-DE stage",[1],4.11
same,"gene expression PALLD (AK025843), H9P44 on MEFs-DE stage",[1],3.29
same,"gene expression PDGFC (AB033831), H9P44 on MEFs-DE stage",[1],0.21
same,"gene expression PLK2 (NM_006622), H9P44 on MEFs-DE stage",[1],5.19
same,"gene expression ST3GAL1 (NM_003033), H9P44 on MEFs-DE stage",[1],2.74
same,"gene expression TRDN (AA192306), H9P44 on MEFs-DE stage",[1],0.57
same,"gene expression TTC29 (AF345910), H9P44 on MEFs-DE stage",[1],0.91
same,"gene expression X58851 (MLC1emb gene), H9P44 on MEFs-DE stage",[1],4.04
same,"gene expression ADAMTS5 (NM_007038), H9P83 on Matrigel-DE stage",[2],1.80
same,"gene expression AF116676 (PRO1957 mRNA), H9P83 on Matrigel-DE stage",[2],3.31
same,"gene expression AI016316 (ESTs), H9P83 on Matrigel-DE stage",[2],1.19
same,"gene expression AI222435 (ESTs), H9P83 on Matrigel-DE stage",[2],−0.73
same,"gene expression AK057525 (cDNA FLJ32963), H9P83 on Matrigel-DE stage",[2],4.45
same,"gene expression BE327172 (v-jun avian sarcoma virus 17 oncogene homolog), H9P83 on Matrigel-DE stage",[2],2.94
same,"gene expression C9orf19 (AA284532), H9P83 on Matrigel-DE stage",[2],4.12
same,"gene expression CD99 (U82164), H9P83 on Matrigel-DE stage",[2],5.69
same,"gene expression CDKN1A (NM_000389), H9P83 on Matrigel-DE stage",[2],4.20
same,"gene expression CNN1 (NM_001299), H9P83 on Matrigel-DE stage",[2],5.75
same,"gene expression COL22A1 (AW241910), H9P83 on Matrigel-DE stage",[2],1.15
same,"gene expression CREB5 (AI819043), H9P83 on Matrigel-DE stage",[2],2.63
same,"gene expression CXCL1 (NM_001511), H9P83 on Matrigel-DE stage",[2],2.95
same,"gene expression DNAJB2 (NM_006736), H9P83 on Matrigel-DE stage",[2],3.46
same,"gene expression DNAJC15 (NM_013238), H9P83 on Matrigel-DE stage",[2],3.79
same,"gene expression EDG3 (AA534817), H9P83 on Matrigel-DE stage",[2],3.28
same,"gene expression EMP3 (NM_001425), H9P83 on Matrigel-DE stage",[2],3.90
same,"gene expression FLNC (NM_001458), H9P83 on Matrigel-DE stage",[2],4.17
same,"gene expression FN1 (AK026737), H9P83 on Matrigel-DE stage",[2],6.85
same,"gene expression FN1 (BC005858), H9P83 on Matrigel-DE stage",[2],6.86
same,"gene expression GADD45A (NM_001924), H9P83 on Matrigel-DE stage",[2],5.04
same,"gene expression GNA14 (NM_004297), H9P83 on Matrigel-DE stage",[2],4.52
same,"gene expression HIST1H2BK (BC000893), H9P83 on Matrigel-DE stage",[2],3.99
same,"gene expression IGSF4 (NM_014333), H9P83 on Matrigel-DE stage",[2],4.12
same,"gene expression JUN (BG491844), H9P83 on Matrigel-DE stage",[2],5.45
same,"gene expression KLF6 (AB017493), H9P83 on Matrigel-DE stage",[2],4.02
same,"gene expression MFAP5 (U37283), H9P83 on Matrigel-DE stage",[2],1.87
same,"gene expression MYL4 (M36172), H9P83 on Matrigel-DE stage",[2],3.30
same,"gene expression PALLD (AK025843), H9P83 on Matrigel-DE stage",[2],3.38
same,"gene expression PDGFC (AB033831), H9P83 on Matrigel-DE stage",[2],0.63
same,"gene expression PLK2 (NM_006622), H9P83 on Matrigel-DE stage",[2],5.88
same,"gene expression ST3GAL1 (NM_003033), H9P83 on Matrigel-DE stage",[2],1.68
same,"gene expression TRDN (AA192306), H9P83 on Matrigel-DE stage",[2],0.02
same,"gene expression TTC29 (AF345910), H9P83 on Matrigel-DE stage",[2],1.53
same,"gene expression X58851 (MLC1emb gene), H9P83 on Matrigel-DE stage",[2],2.75
